Experiments:
[1] = system: New Zealand White rabbit iliac arteries; test: Inhibition of restenosis at 28 days in the rabbit iliac stent model; assay type: in vivo
Procedure: A.2 Inhibition of Restenosis at 28 Days in the Rabbit Iliac Stent Model
A combined angioplasty and stenting procedure is performed in New Zealand White rabbit iliac arteries. Iliac artery balloon injury is performed by inflating a 3.0×9.0 mm angioplasty balloon in the mid-portion of the artery followed by “pull-back” of the catheter for 1 balloon length. Balloon injury is repeated 2 times, and a 3.0×12 mm stent is deployed at 6 atm for 30 seconds in the iliac artery. Balloon injury and stent placement is then performed on the contralateral iliac artery in the same manner. A post-stent deployment angiogram is performed. All animals receive oral aspirin 40 mg/day daily as anti-platelet therapy and are fed standard low-cholesterol rabbit chow. Twenty-eight days after stenting, animals are anesthetized and euthanized and the arterial tree is perfused at 100 mmHg with lactated Ringer's for several minutes, then perfused with 10% formalin at 100 mmHg for 15 minutes. The vascular section between the distal aorta and the proximal femoral arteries is excised and cleaned of periadventitial tissue. The stented section of artery is embedded in plastic and sections are taken from the proximal, middle, and distal portions of each stent. All sections are stained with hematoxylin-eosin and Movat pentachrome stains. Computerized planimetry is performed to determine the area of the internal elastic lamina (IEL), external elastic lamina (EEL) and lumen. The neointima and neointimal thickness is measured both at and between the stent struts. The vessel area is measured as the area within the EEL. Data are expressed as mean ±SEM. Statistical analysis of the histologic data is accomplished using analysis of variance (ANOVA) due to the fact that two stented arteries are measured per animal with a mean generated per animal. A P<0.05 is considered statistically significant.
A compound of formula I, e.g. 40-O-(2-hydroxyethyl)-rapamycin, is administered orally by gavage at a loading dose of 1.5 mg/kg one day prior to stenting, then dosed at 0.75 mg/kg/day from the day of stenting until day 27 post-stenting. In this model, the treatment with the compounds of formula I results in a marked reduction in the extent of restenotic lesion formation: for example, the treatment with 40-O-(2-hydroxyethyl)-rapamycin produces a significant (P<0.03) reduction in neointimal thickness (40% reduction), neointimal area (24% reduction), and percent arterial stenosis (26% reduction) with a significant 32% increase in lumen area. There is extensive neointimal formation in placebo-treated animals at 28 days, with the lesions consisting of abundant smooth muscle cells in proteoglycan/collagen matrix and apparent full endothelial healing.

[2] = system: ballooned carotid of Sprague Dawley rats; test: Inhibition of restenosis at 14 days in the rat carotid stent model, perivascular local delivery; assay type: in vivo; conditions: local perivascular administration, 10 to 200 μg/day
Procedure: A.3 Inhibition of Restenosis at 14 Days in the Rat Carotid Stent Model
Male Sprague Dawley rats weighing […] are housed individually and allowed to acclimate prior to surgery. All animals receive standard rat chow and water ad libitum. Group size is 12 animals per group.
The drug(s) administration is perivascular. A segment of ballooned carotid is encircled with a 1 cm length of silastic tubing (0.25 inch inside diameter, 0.47 inch outside diameter) to which is attached a catheter which feeds into an osmotic pump containing either compound or vehicle. This delivery system provides continuous, local delivery to the adventitia of the wrapped portion of vessel. Local drug(s) administration ranges between 5 μg and 10 mg, locally per day, depending on the solubility characteristics of the individual compounds. […]
Animals are killed at 14 days post-balloon injury. […] Animals are killed by administration of an overdose of ketamine and rompun, the osmotic pumps are recovered and the volume of remaining content is recorded to ensure that pump failure has not occurred.
Carotid, arteries are excised and immersion fixed, then transferred to Ringer's solution. […] The intimal lesion area and the medial area are determined by measurement of the internal elastic lamina, the external elastic lamina and the vessel/lumen interface.

[3] = system: rat carotid artery balloon injury model; test: Inhibition of late neointimal lesion formation in the 28 day rat carotid artery balloon injury model; assay type: in vivo; conditions: for percent inhibition of neointimal lesion formation: oral, 28 days post-balloon injury
Procedure: A1. Inhibition of Late Neointimal Lesion Formation in the 28 Day Rat Carotid Artery Balloon Injury Model
Compounds of formula I are tested in the following rat model.
Rats are dosed orally with placebo or a compound of formula I. Daily dosing starts 3 days prior to surgery and continues for 31 days. Rat carotid arteries are balloon injured using a method described by Clowes et al. Lab. Invest. 1983; 49; 208-215. Following sacrifice at 28 days post-balloon injury, carotid arteries are removed and processed for histologic and morphometric evaluation. […] For example for 40-O-(2-hydroxyethyl)-rapamycin administered at 0.5, 1.0, and 2.0 mg/kg, the percent inhibition is similar at all three doses: inhibition is 31% at the lowest dose (0.5 mg/kg) and 39% at the highest dose (2.0 mg/kg). Compounds of formula I, e.g. 40-O-(2-hydroxyethyl)-rapamycin, have the beneficial effect to inhibit lesions at 4 weeks post-ballooning.

dialysis patients = test: Prevention or reduction of vascular access dysfunction after insertion of an indwelling catheter in dialysis patients; assay type: in vivo, human; conditions: daily dose 0.75 to 20 mg, 3 month treatment, observation period 6 months
Procedure: A5. Prevention or Reduction of Vascular Access Dysfunction in Association with the Insertion of an Indwelling Catheter into the Vein of a Patient
One hundred fifty prospective dialysis patients, who undergo successful insertion of an indwelling, large bore catheter, into a vein are selected for the study. […] In addition, patients may also be given a calcium antagonist, nitrates and/or anti-platelet agents. These drugs are administered for 3 consecutive months following catheter insertion.

[4] = Release of drug from coated stents in PBS or PEG/water; assay type: physicochemical; conditions: PBS pH 7.4 or PEG 400/water 40/60 v/v, 37° C., stable = less than 10% of variation of the drug release
Procedure: Four 2 cm pieces of coated stents as described above are placed into 100 ml of phosphate buffer solution (PBS) having a pH of 7.4. Another 4 pieces from each series are placed into 100 ml polyethylene glycol (PEG)/water solution (40/60 v/v, MW of PEG=400). The stent pieces are incubated at 37° C. in a shaker. The buffer and PEG solutions are changed daily and different assays are performed on the solution to determine the released 40-O-(2-hydroxyethyl)-rapamycin concentrations. Such assays can show a stable release of 40-O-(2-hydroxyethyl)-rapamycin from coated stents for more than 45 days. By the term “stable release of 40-O-(2-hydroxyethyl)-rapamycin” is meant less than 10% of variation of the drug release. Controlled release techniques used by a person skilled in the art allow an unexpected easy adaptation of the required drug release rate. Thus, by selecting appropriate amounts of reactants in the coating mixture it is possible to easily control the bioeffectiveness of the rapamycin or rapamycin derivastive coated stents.

[5] = oral gavage, loading 1.5 mg/kg then 0.75 mg/kg/day to day 27, 28 days post-stenting, P<0.03

CO[C@H]1C[C@@H]2CC[C@@H](C)[C@@](O)(O2)C(=O)C(=O)N2CCCC[C@H]2C(=O)O[C@H]([C@H](C)C[C@@H]2CC[C@@H](OCCO)[C@H](OC)C2)CC(=O)[C@H](C)/C=C(\C)[C@@H](O)[C@@H](OC)C(=O)[C@H](C)C[C@H](C)/C=C/C=C/C=C/1C [40-O-(2-hydroxyethyl)-rapamycin]
histology of the intima of stented arterial segments ([1]; majority of arterial segments, 28 days post-stenting): the intima is well healed
endothelialization of stented arteries (scanning electron microscopic analysis) ([1]; n=4 arteries, 28 days post-stenting): 84%
increase in lumen area ([1]; oral gavage, loading 1.5 mg/kg then 0.75 mg/kg/day to day 27, 28 days post-stenting): 32%
reduction in neointimal area [1, 5]: 24%
reduction in neointimal thickness [1, 5]: 40%
reduction in percent arterial stenosis [1, 5]: 26%
neointimal lesion formation at 14 days post ballooning [2]: reduces neointimal lesion formation
neointimal lesion formation at 28 days following balloon injury ([3]; oral daily dosing from 3 days prior to surgery for 31 days, 0.5 to 2.0 mg/kg): significantly reduce neointimal lesion formation
percent inhibition of neointimal lesion formation ([3]; 0.5 mg/kg): 31%
percent inhibition of neointimal lesion formation ([3]; 2.0 mg/kg): 39%
prevention or reduction of vascular access dysfunction (dialysis patients): demonstrate the efficacy
duration of stable release from coated stents [4]: more than 45 days

— patent publication US20090036352A1, “DRUG DELIVERY SYSTEMS FOR THE PREVENTION AND TREATMENT OF VASCULAR DISEASES COMPRISING RAPAMYCIN AND DERIVATIVES THEREOF” (priority 2002, published 2009)
